This note sets out measurements from PMC6952197, “Harvesting of Prebiotic Fructooligosaccharides by Nonbeneficial Human Gut Bacteria” (mSphere, 2020).

The target in data set [1] is T1, Dorea PTS_EIIBCA (I9 PTS_EIIBCA) (uncultured bacterium, UniProt S6CP27).
T1 construct: full-length single multidomain protein (domains B, C, A; ten predicted transmembrane helices)
T1 sequence (S6CP27 1-643): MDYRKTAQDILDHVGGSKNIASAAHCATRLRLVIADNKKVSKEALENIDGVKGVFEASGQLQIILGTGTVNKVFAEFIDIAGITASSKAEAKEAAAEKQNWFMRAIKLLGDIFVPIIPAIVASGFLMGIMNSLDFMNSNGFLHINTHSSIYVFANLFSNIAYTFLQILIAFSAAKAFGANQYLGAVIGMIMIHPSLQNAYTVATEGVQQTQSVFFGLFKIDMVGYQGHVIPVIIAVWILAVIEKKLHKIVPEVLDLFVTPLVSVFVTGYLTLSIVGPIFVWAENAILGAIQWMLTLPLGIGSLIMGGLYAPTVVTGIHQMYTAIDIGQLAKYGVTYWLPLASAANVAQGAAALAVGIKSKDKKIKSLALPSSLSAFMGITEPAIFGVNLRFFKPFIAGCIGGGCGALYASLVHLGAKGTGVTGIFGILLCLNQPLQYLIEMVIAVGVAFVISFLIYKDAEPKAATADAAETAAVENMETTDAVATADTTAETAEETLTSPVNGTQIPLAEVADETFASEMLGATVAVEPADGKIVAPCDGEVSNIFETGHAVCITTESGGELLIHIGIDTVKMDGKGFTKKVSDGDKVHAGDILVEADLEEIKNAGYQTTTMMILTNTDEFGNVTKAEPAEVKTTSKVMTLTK
Kind of data set: binding saturation on washed crude membranes; unbound kestose by HPAEC-PAD.

Substrate in data set [2]: OC[C@H]1O[C@@](CO)(OC[C@@]2(O[C@H]3O[C@H](CO)[C@@H](O)[C@H](O)[C@H]3O)O[C@H](CO)[C@@H](O)[C@@H]2O)[C@@H](O)[C@@H]1O
Kind of data set: uptake saturation in intact E. coli cells; residual kestose by HPAEC-PAD. It is filed as cell-based, uncultured bacterium. The following applies: I9min_PTS cells (E. coli EPI100, host EI and HPr/FPr complement), TBS pH 7.0, 37°C, transport. An excerpt: uptake saturation in intact E. coli cells; residual kestose by HPAEC-PAD on Dorea PTS_EIIBCA (I9 PTS_EIIBCA) | The affinity constants of kestose uptake by I9min_PTS cells (Km)

The molecule `OC[C@H]1O[C@@](CO)(OC[C@@]2(O[C@H]3O[C@H](CO)[C@@H](O)[C@H](O)[C@H]3O)O[C@H](CO)[C@@H](O)[C@@H]2O)[C@@H](O)[C@@H]1O` [kestose] returned a Kd in data set [1] of 51 ± 12 µM.

B1: Dorea PTS_EIIBCA (I9 PTS_EIIBCA) (uncultured bacterium) (protein)
chain: MDYRKTAQDILDHVGGSKNIASAAHCATRLRLVIADNKKVSKEALENIDGVKGVFEASGQLQIILGTGTVNKVFAEFIDIAGITASSKAEAKEAAAEKQNWFMRAIKLLGDIFVPIIPAIVASGFLMGIMNSLDFMNSNGFLHINTHSSIYVFANLFSNIAYTFLQILIAFSAAKAFGANQYLGAVIGMIMIHPSLQNAYTVATEGVQQTQSVFFGLFKIDMVGYQGHVIPVIIAVWILAVIEKKLHKIVPEVLDLFVTPLVSVFVTGYLTLSIVGPIFVWAENAILGAIQWMLTLPLGIGSLIMGGLYAPTVVTGIHQMYTAIDIGQLAKYGVTYWLPLASAANVAQGAAALAVGIKSKDKKIKSLALPSSLSAFMGITEPAIFGVNLRFFKPFIAGCIGGGCGALYASLVHLGAKGTGVTGIFGILLCLNQPLQYLIEMVIAVGVAFVISFLIYKDAEPKAATADAAETAAVENMETTDAVATADTTAETAEETLTSPVNGTQIPLAEVADETFASEMLGATVAVEPADGKIVAPCDGEVSNIFETGHAVCITTESGGELLIHIGIDTVKMDGKGFTKKVSDGDKVHAGDILVEADLEEIKNAGYQTTTMMILTNTDEFGNVTKAEPAEVKTTSKVMTLTK
notes: full-length single multidomain protein (domains B, C, A; ten predicted transmembrane helices)
In the case of B1, in data set [2], the Km was determined as 266 ± 165 µM.
